Where two headings read alike, the source gives them in different places.
Assays:
[1] = test system: Lentinus sp. laccase, wild type, purified from culture; experiment: Laccase kinetics of purified Lentinus sp. laccase; format: biochemical
Experimental: All chemicals used in this study were obtained from Merck (Darmstadt, Germany) or Sigma-Aldrich (St. Louis, Mo. USA). All spectrophotometric measurements were performed using the Beckman DU 640 spectrophotometer (Beckman Coulter, USA).
Kinetic parameters Km and Vmax were determined as follows. […] The oxidation reactions of guaiacol and 2,6-DMP were monitored by determining OD436 values (ε=6,400 M^−1cm^−1) and OD468 values (ε=49,600 M^−1 cm^−1), respectively. The kinetic parameters were determined by nonlinear regression analysis (ENZFITTER software program, Elsevier-Biosoft, Cambridge, UK) using the Michaelis-Menten model.
Kinetic parameters were determined following conventional methods. See also Example 1 above.

Panus tigrinus laccase = settings: ABTS as substrate, optimum 30 °C at pH 3.5, cited from earlier work
Agaricus blazei laccase = settings: ABTS as substrate, optimum 25 °C at pH 2.3, cited from earlier work
[2] = test system: Pycnoporus sanguineus laccase; settings: ABTS as substrate, optimum 25 °C at pH 3.0, cited from earlier work
[3] = test system: Pleurofus sajor-caju laccase; settings: ABTS as substrate, optimum 40 °C at pH 5.0, cited from earlier work
[4] = test system: Trametes versicolor laccase; settings: ABTS as substrate, optimum 55 °C at pH 4.0, cited from earlier work
[5] = test system: Trametes C30 laccase LAC2; settings: ABTS as substrate, optimum 55 °C at pH 5.7, cited from earlier work
Cerrena unicolor laccase = settings: ABTS as substrate; optimum 70 °C at pH 3.5; cited from earlier work
[6] = test system: Trametes pubescens laccase LAP2; settings: ABTS as substrate, optimum 25 °C at pH 4.0, cited from earlier work
[7] = test system: Panus(Lentinus)tigrinus 8/18 laccase; settings: ABTS as substrate; cited from earlier work
[8] = substrate: COc1ccccc1O; experiment: Laccase kinetics of purified Cerrena sp. WR1 Lcc3; format: biochemical; settings: other: guaiacol as substrate, 50 mM citrate buffer, 70 °C, pH 4.5, pH 4.5
[9] = substrate: COc1cccc(OC)c1O; experiment: Laccase kinetics of purified Cerrena sp. WR1 Lcc3; format: biochemical; settings: other: 2,6-DMP as substrate, 50 mM citrate buffer, 70 °C, pH 3.5, pH 3.5
[10] = substrate: CCn1c(=NN=c2sc3cc(S(=O)(=O)O)ccc3n2CC)sc2cc(S(=O)(=O)O)ccc21; experiment: purified protein, by the assay type; settings: other: ABTS as substrate, 50 mM citrate buffer, 50 °C, pH 3.0
[11] = Laccase activity in culture media of recombinant P. pastoris; format: biochemical; settings: expressed in P. pastoris X-33; 13-26 day (Lcc1-3) or 18-day (LccA) cultivation
Excerpt: The EasySelect™ Pichia Expression System (Invitrogen) was used in this study for expression of Lcc1, Lcc2, and Lcc3 laccases. cDNA fragments coding for these three laccases were cloned into Pichia expression vector pPICZA or pPICZaB via EcoRI and NotI restriction sites. More specifically, the lcc1 gene coding for Lcc1 precursor (including a signal peptide sequence) was cloned into pPICA to generate expression plasmid pPICZA-lcc1 and the lcc2 and lcc3 genes coding for mature Lcc2 and Lcc3 were cloned into pPICZaB to obtain expression plasmids pPICZaB-lcc2 and pPICZaB-lcc3, respectively. The three expression plasmids were introduced into P. pastoris X-33 cells following the method described in Invitrogen's protocol. Positive transformants were cultured in BMMY (1% yeast extract, 2% peptone, 100 mM potassium phosphate, pH 6.0, 1.34% yeast nitrogen base, 0.00004% biotin, and 0.5% methanol) at 25° C., 200 rpm for 12-26 days. Methanol was added to the culture media daily to reach a final concentration of 0.5%. During the cultivation, 1 ml of the supernatant was collected at various time points. The laccase activity and cell density in the supernatant were determined following the method described above or routine procedures.
pPICZ-lccA was introduced into Pichia pastoris strain X-33 host cells (Invitrogen) and positive transformants were selected for LccA expression. Briefly, a positive transformant was cultured in BMMY medium containing 1% yeast extract, 2% peptone, 1.34% yeast nitrogen base, 0.00004% biotin, and 0.5% methanol at 25° C. and 200 rpm for 20 days. Methanol was daily added to reach a final concentration of 0.5%. Within the 20-day cultivation, 1 ml of the supernatant was collected; laccase activity and cell growth were determined.

[12] = guaiacol as substrate, optimum 70 °C at pH 5.0
[13] = 2,6-DMP as substrate, optimum 60 °C at pH 3.5
[14] = ABTS as substrate, optimum 70 °C at pH 2.5

For COc1ccccc1O [guaiacol], the Km [1, 12] was 524 µM and the kcat [1, 12] was 305.5 s⁻¹.

COc1cccc(OC)c1O [2,6-DMP, 2,6-dimethoxyphenol] gave a Km [1, 13] of 434 µM and a kcat [1, 13] of 121.9 s⁻¹.

For CCn1c(=NN=c2sc3cc(S(=O)(=O)O)ccc3n2CC)sc2cc(S(=O)(=O)O)ccc21 [ABTS, 2,2′-azino-bis-(3-ethylbenzthiazoline-6-sulfonic acid)], the Km (Panus tigrinus laccase; Table 2) is given as 31 µM, the Km (Panus tigrinus laccase; Table 4) is given as 31 µM and the kcat (Panus tigrinus laccase) is given as 185.69 s⁻¹. For the same molecule, the Km (Agaricus blazei laccase; Table 2) was 63 µM, the Km (Agaricus blazei laccase; Table 4) was 63 µM and the kcat (Agaricus blazei laccase) was 21 s⁻¹. For the same molecule, the Km ([2]; Table 2) was 77 µM, the Km ([2]; Table 4) was 77 µM and the kcat [2] was 1.155 s⁻¹. The Km ([3]; Table 2) was 56 µM, the Km ([3]; Table 4) was 56 µM and the kcat [3] was 520.24 s⁻¹. For the same molecule, the Km [1, 14] was 8.4 µM, the kcat [1, 14] was 2016.5 s⁻¹ and the Km ([4]; Table 2) was 37.3 µM. For the same molecule, the Km ([4]; Table 4) was 37.3 µM, the kcat [4] was 351.3 s⁻¹ and the Km ([5]; Table 2) was 536 µM. The Km ([5]; Table 4) was 536 µM, the kcat [5] was 683.33 s⁻¹ and the Km (Cerrena unicolor laccase) was 800 µM. The Km ([6]; Table 2) was 43 µM, the Km ([6]; Table 4) was 43 µM and the kcat [6] was 350 s⁻¹. The Km [7] was 33.4 µM.

B1: Cerrena sp. WR1 laccase Lcc3, wild type (mature SEQ ID NO: 3; precursor SEQ ID NO: 9; GenBank GQ899203) (Cerrena sp. WR1) (protein)
chain: AIGPVADLHITDANVSPDGFTRPAVLAGGTFPGPLITGKQGDNFQINVIDELTDATMLKSTSIHWHGIFQKGTNWADGPSFVNQCPITTGNSFLYDFSVPDQTGTYWYHSHLSTQYCDGLRGALVIYDDNDPHKDLYDVDDETTVITLADWYHTQARLITGVPVSDATLINGLGRYLNGPTDAPLAVITVDQGKRYRFRLVSISCDPNFVFSIDNHSMTVIEVDAVNSQPLVVDSIQIFAAQRYSFILNANQSVGNYWIRANPNLGNTGFTNGINSAILRYNGAPVAEPNTTQTASTNPLNEVNLHPLVPTPVPGTPQPGGVDVVQNLVLGFSGGKFTINGVAFSPPTVPVLLQILSGTTTAQDLLPTGSIIELPLGKTVELTLAAGVLGGPHPFHLHGHTFHVVRSAGQTTPNYVDPILRDTVNTGAAGDNVTIRFTTDNPGPWFLHCHIDWHLEAGFAVVFAEGLNQTNAANPTPDAWNNLCDLYNALPAGDQ
notes: WR1 culture supernatant (Q Sepharose); precursor 516 aa with 21-residue signal peptide
Work on B1 yielded a Km [8] of 849.1 µM, a kcat [8] of 148 s⁻¹ and a Km [9] of 392.7 µM. For the same molecule, the kcat [9] was 109 s⁻¹, the kcat/Km [9] was 280000 M⁻¹ s⁻¹ and the Km [10] was 3.27 µM. The kcat [10] was 934.6 s⁻¹.

B2: Lcc1: laccase from Cerrena sp. WR1, GenBank accession no. GQ899201; SEQ ID NO:1 mature, 7 precursor (protein)
chain: AIGPVTDLEITNGTISPDGYSRAAVLAGGSFPGPLITGNKSDNFQINVVNSLADSDMLKSTTVHWHGFFQKGTNWADGPAFVNQCPIATGNSFLYNFNATDQAGTFWYHSHLETQYCDGLRGPMVVYDPDDPHADLYDVDDDSTVITLADWYHTLARLGAAFPTSDATLINGLGRYSDGNTTDLAVITVESGKRYRFRLVSISCDPNFTFSIDNHTMTIIEADAVNYTPLDVDEIQIFAGQRYSFILTANQTVDNYWIRADPNVGTTGFDNGINSAILRYSGADEVEPTTNQTTSTNPLVEANLVPLDGAAAPGEAVAGGVDYALNLALAFDGTNLDFTVNGYEYTSPTVPVLLQILSGASSVDDLLPSGSIYSLPSNSTIELSIPALAVGAPHPIHLHGHTFSVVRSAGSTTYNYDNPPRRDVVSIGTATDDNVTIRFTTDNPGPWFLHCHIDFHLEAGFAVVFAEDFNDTASANTVTTEWSDLCTTYDALSSDDL
modifications: Cerrena sp
For B2, the “laccase activity in culture media” value [11] was “approximately 800 U/L”.

B3: LccA: laccase from Lentinus sp., GenBank accession no. FJ693715; SEQ ID NO:4 mature, 10 precursor (protein)
chain: GIGPIASLVVTDAQISPDGYLRDAIVTNGVFPAPLITGRKGDHFQLNVVDSMTNHTMLKSTSIHWHGFFQKGTNWADGPAFVNQCPISSGHSFLYDFHVPDQAGTFWYHSHLSTQYCDGLRGPMVVYDPNDPHANLYDIDNDSTVITLADWYHVAAKLGPRFPLGADATLINGKGRSPATPTAALSVINVVKGKRYRFRLVSISCDPNYVFSIDNHTMTVIEADTVNTQPLAVDSIQIFAAQRYSFILNANQPVDNYWIRANPNFGNVGFTDGINSAILRYTGAALVEPSATTAPTLSNPLVETNLHPLAPMPVPGQPVSGGVDKAINFAFNFDGTDFFINGASFVPPTVPVLLQIMSGASTAQDLLPSGSVYPLPSNATIELSFPATAAAPGAPHPFHLHGHVFAVVRSAGSTTYNYNNPIWRDVVSTGTPAAGDNVTIRFSTNNPGPWFLHCHIDFHLEAGFAVVMAEDVPDIPSANPVPQAWSNLCPTYNALSSDDQ
modifications: Lentinus sp
With B3 the “laccase activity in culture media” value [11] was “about 400 U/L”.

B4: Lcc2: laccase from Cerrena sp. WR1, GenBank accession no. GQ899202; SEQ ID NO:2 mature, 8 precursor (protein)
chain: AIGPVTDLTITNATISPDGFSRQAVLAGGVFPGPLITGNKGDNFQINVVNSLENSDMLKSTTIHWHGFFQKGTNWADGPAFVNQCPIATGNSFLYNFNADDQAGTFWYHSHLSTQYCDGLRGPMVVYDPNDPHASLYDVDDESTVITLADWYHTLARLGAAFPTADATLINGLGRYSDGTTSDLAVITVESGKRYRFRLVNISCDPNYTFSIDNHTFTVIEVDGVNHAALDVDEIQIFAGQRYSFVLTANQTVDNYWIRANPNLGTTGFDNGINSAILRYSGANETEPTTTQTTATAALSEASLVPLEDPAAPGEAVAGGVDYALNLAFAFDGANLDFTVNGETYVSPTVPVLLQILSGASSVSDLLPAGSVYSLPSNSTIELSMPGGVVGGGHPLHLHGHAFSVVRSAGSDTYNYVNPPRRDVVNIGAAGDNVTIRFTTDNPGPWFLHCHIDFHLEAGFAVVFAEDFNATASSNTVTTEWSNLCTTYDALSADDQ
modifications: Cerrena sp
In the case of B4, the “laccase activity in culture media” value [11] is reported as ~160 U/L.

Source: patent publication US8728787B2, “Fungal laccases and uses thereof” (Academia Sinica, priority 2010, dated 2014)
